Data taken from patent publication US20150258106A1, “METHODS FOR ACUTE AND LONG-TERM TREATMENT OF SUBSTANCE ABUSE” (DEMERX, INC., priority 2014, published 2015).

Experiments:
[1] = Pharmacokinetics of noribogaine in healthy volunteers, ascending single oral dose (plasma noribogaine and noribogaine glucuronide); conditions: for CL/F: healthy male volunteers, fasted, n = 6, mean (SD); for mean AUC/24 hr / time after administration at which mean Cmax was observed / mean AUC/24: fasting
[2] = test system: opioid-dependent participants; assay: Treatment emergent adverse events in opioid-dependent participants (randomized, placebo-controlled, double-blind trial); assay type: in vivo, human
Description: The efficacy of noribogaine in humans was evaluated in opioid-dependent participants in a randomized, placebo-controlled, double-blind trial. […] See U.S. application Ser. No. 14/214,157, filed Mar. 14, 2014 and Ser. No. 14/346,655, filed Mar. 21, 2014, which are incorporated herein by reference in their entireties.
Three cohorts of nine (9) subjects (6 administered noribogaine and 3 administered placebo in each cohort) were evaluated for tolerability, pharmacokinetics, and efficacy. Cohort 1 received a single dose of 60 mg noribogaine or placebo. Cohort 2 received a single dose of 120 mg noribogaine or placebo. Cohort 3 received a single dose of 180 mg noribogaine or placebo. […] Headaches were frequent in the placebo and 60 mg noribogaine treatment groups, but were attenuated in the 120 mg and 180 mg dose groups.

[3] = test system: opioid-dependent participants; assay: QT interval evaluation in opioid-dependent participants; assay type: in vivo, human; conditions: opioid-dependent patients, first 24 hours post administration, 60-180 mg
Description: Patients' QT intervals were evaluated at regular time points throughout the study.

[4] = single dose of 3 mg noribogaine free base
[5] = single dose of 10 mg noribogaine free base
[6] = single dose of 30 mg noribogaine free base
[7] = single dose of 60 mg noribogaine free base
[8] = opioid-dependent patients, 60, 120 or 180 mg single dose
[9] = opioid-dependent patients, single 60 mg dose, N = 6
[10] = opioid-dependent patients, single 120 mg dose, N = 6
[11] = opioid-dependent patients, single 180 mg dose, N = 6

CCC1CC2CC3c4[nH]c5ccc(O)cc5c4CCN(C2)C13 (centres unmarked) [Noribogaine]
CL/F ([1]; single oral 3 mg dose, plasma): 41.4 (7.0) L/h | CL/F ([1]; single oral 10 mg dose, plasma): 42.3 (12.0) L/h | CL/F ([1]; single oral 30 mg dose, plasma): 46.9 (16.4) L/h | CL/F ([1]; single oral 60 mg dose, plasma): 34.0 (11.4) L/h | Cmax and AUC versus dose ([1]; healthy volunteers, 3-60 mg single oral doses): increased linearly with dose | time of peak concentrations after oral dosing ([1]; healthy volunteers, across dose groups 3-60 mg): 2 to 3 h | absorption ([1]; healthy volunteers, oral dosing): rapidly absorbed | Vd ([1]; male, human, plasma, oral): 1420 to 3090 L | half-life ([1]; male, human, plasma, oral): 28 to 50 h | AUC(0-inf) ([1]; male, human, plasma, po, 3 mg): 74.2 ng·h/mL | AUC(0-t) ([1]; male, human, plasma, po, 3 mg): 72.2 ng·h/mL | Cmax ([1]; male, human, plasma, po, 3 mg): 5.2 ng/mL | Tmax ([1]; male, human, plasma, po, 3 mg): 1.9 h | Vd/F ([1]; male, human, plasma, po, 3 mg): 2490 L | half-life ([1]; male, human, plasma, po, 3 mg): 40.9 h | AUC(0-inf) ([1]; male, human, plasma, po, 10 mg): 254 ng·h/mL | AUC(0-t) ([1]; male, human, plasma, po, 10 mg): 251 ng·h/mL | Cmax ([1]; male, human, plasma, po, 10 mg): 14.5 ng/mL | Tmax ([1]; male, human, plasma, po, 10 mg): 2.9 h | Vd/F ([1]; male, human, plasma, po, 10 mg): 3090 L | half-life ([1]; male, human, plasma, po, 10 mg): 49.2 h | AUC(0-inf) ([1]; male, human, plasma, po, 30 mg): 700 ng·h/mL | AUC(0-t) ([1]; male, human, plasma, po, 30 mg): 678 ng·h/mL | Cmax ([1]; male, human, plasma, po, 30 mg): 55.9 ng/mL | Tmax ([1]; male, human, plasma, po, 30 mg): 1.8 h | Vd/F ([1]; male, human, plasma, po, 30 mg): 1850 L | half-life ([1]; male, human, plasma, po, 30 mg): 27.6 h | AUC(0-inf) ([1]; male, human, plasma, po, 60 mg): 1960 ng·h/mL | AUC(0-t) ([1]; male, human, plasma, po, 60 mg): 1940 ng·h/mL | Cmax ([1]; male, human, plasma, po, 60 mg): 116 ng/mL | Tmax ([1]; male, human, plasma, po, 60 mg): 2.4 h | Vd/F ([1]; male, human, plasma, po, 60 mg): 1420 L | half-life ([1]; male, human, plasma, po, 60 mg): 29.1 h | Cmax ([1]; male, human, serum, oral, 3 mg): 5.2 ng/mL | Cmax ([1]; male, human, serum, oral, 10 mg): 14.5 ng/mL | Cmax ([1]; male, human, serum, oral, 30 mg): 55.9 ng/mL | Cmax ([1]; male, human, serum, oral, 60 mg): 116 ng/mL | mean AUC/24 hr [1, 4]: 3.1 ng/mL | time after administration at which mean Cmax was observed [1, 4]: 1.9 h | mean AUC/24 hr [1, 5]: 10.6 ng/mL | time after administration at which mean Cmax was observed [1, 5]: 2.9 h | mean AUC/24 [1, 6]: 29.2 ng/mL | time after administration at which mean Cmax was observed [1, 6]: 1.75 h | mean AUC/24 [1, 7]: 61 ng/mL | time after administration at which mean Cmax was observed [1, 7]: 1.75 h | Headaches ([2]; opioid-dependent patients, 60 mg treatment group): frequent | Headaches ([2]; opioid-dependent patients, 120 mg dose group): attenuated | Headaches ([2]; opioid-dependent patients, 180 mg dose group): attenuated | adverse effects of noribogaine observed [2, 8]: Few adverse effects | hallucinatory effects [2, 8]: no hallucinatory effects | Treatment Emergent Adverse Events: Catheter Site Infection [2, 9]: 0 | Treatment Emergent Adverse Events: Catheter Site Pain [2, 9]: 0 | Treatment Emergent Adverse Events: Catheter Site Related Reaction [2, 9]: 0 | Treatment Emergent Adverse Events: Cellulitis [2, 9]: 0 | Treatment Emergent Adverse Events: Diarrhoea [2, 9]: 0 | Treatment Emergent Adverse Events: Dry Mouth [2, 9]: 0 | Treatment Emergent Adverse Events: Ear and Labyrinth Disorders [2, 9]: 0 | Treatment Emergent Adverse Events: Epistaxis [2, 9]: 0 | Treatment Emergent Adverse Events: Euphoric Mood [2, 9]: 0 | Treatment Emergent Adverse Events: General Disorders and Administration Site Conditions [2, 9]: 0 | Treatment Emergent Adverse Events: Hyperaesthesia [2, 9]: 0 | Treatment Emergent Adverse Events: Infections and Infestations [2, 9]: 0 | Treatment Emergent Adverse Events: Limb Discomfort [2, 9]: 0 | Treatment Emergent Adverse Events: Malaise [2, 9]: 0 | Treatment Emergent Adverse Events: Nausea [2, 9]: 0 | Treatment Emergent Adverse Events: Oropharyngeal Pain [2, 9]: 0 | Treatment Emergent Adverse Events: Pseudoparalysis [2, 9]: 0 | Treatment Emergent Adverse Events: Respiratory, Thoracic and Mediastinal Disorders [2, 9]: 0 | Treatment Emergent Adverse Events: Rhinorrhoea [2, 9]: 0 | Treatment Emergent Adverse Events: Skin Discomfort [2, 9]: 0 | Treatment Emergent Adverse Events: Skin Irritation [2, 9]: 0 | Treatment Emergent Adverse Events: Skin and Subcutaneous Tissue Disorders [2, 9]: 0 | Treatment Emergent Adverse Events: Somnoience [2, 9]: 0 | Treatment Emergent Adverse Events: Tinnitus [2, 9]: 0 | Treatment Emergent Adverse Events: Tremor [2, 9]: 0 | Treatment Emergent Adverse Events: Urinary Tract Infection [2, 9]: 0 | Treatment Emergent Adverse Events: Vomiting [2, 9]: 0 | Treatment Emergent Adverse Events: Back Pain [2, 10]: 0 | Treatment Emergent Adverse Events: Catheter Site Infection [2, 10]: 0 | Treatment Emergent Adverse Events: Catheter Site Related Reaction [2, 10]: 0 | Treatment Emergent Adverse Events: Depressed Mood [2, 10]: 0 | Treatment Emergent Adverse Events: Dry Eye [2, 10]: 0 | Treatment Emergent Adverse Events: Dyspepsia [2, 10]: 0 | Treatment Emergent Adverse Events: Euphoric Mood [2, 10]: 0 | Treatment Emergent Adverse Events: Limb Discomfort [2, 10]: 0 | Treatment Emergent Adverse Events: Malaise [2, 10]: 0 | Treatment Emergent Adverse Events: Musculoskeletal and Connective Tissue Disorders [2, 10]: 0 | Treatment Emergent Adverse Events: Psychiatric Disorders [2, 10]: 0 | Treatment Emergent Adverse Events: Somnoience [2, 10]: 0 | Treatment Emergent Adverse Events: Urinary Tract Infection [2, 10]: 0 | Treatment Emergent Adverse Events: Catheter Site Infection [2, 11]: 0 | Treatment Emergent Adverse Events: Catheter Site Pain [2, 11]: 0 | Treatment Emergent Adverse Events: Depressed Mood [2, 11]: 0 | Treatment Emergent Adverse Events: Diarrhoea [2, 11]: 0 | Treatment Emergent Adverse Events: Dry Eye [2, 11]: 0 | Treatment Emergent Adverse Events: Dyspepsia [2, 11]: 0 | Treatment Emergent Adverse Events: Ear and Labyrinth Disorders [2, 11]: 0 | Treatment Emergent Adverse Events: Epistaxis [2, 11]: 0 | Treatment Emergent Adverse Events: Euphoric Mood [2, 11]: 0 | Treatment Emergent Adverse Events: Hyperaesthesia [2, 11]: 0 | Treatment Emergent Adverse Events: Malaise [2, 11]: 0 | Treatment Emergent Adverse Events: Oropharyngeal Pain [2, 11]: 0 | Treatment Emergent Adverse Events: Pseudoparalysis [2, 11]: 0 | Treatment Emergent Adverse Events: Psychiatric Disorders [2, 11]: 0 | Treatment Emergent Adverse Events: Respiratory, Thoracic and Mediastinal Disorders [2, 11]: 0 | Treatment Emergent Adverse Events: Rhinorrhoea [2, 11]: 0 | Treatment Emergent Adverse Events: Skin Discomfort [2, 11]: 0 | Treatment Emergent Adverse Events: Skin Irritation [2, 11]: 0 | Treatment Emergent Adverse Events: Skin and Subcutaneous Tissue Disorders [2, 11]: 0 | Treatment Emergent Adverse Events: Somnoience [2, 11]: 0 | Treatment Emergent Adverse Events: Tinnitus [2, 11]: 0 | Treatment Emergent Adverse Events: Tremor [2, 11]: 0 | QT interval prolongation (ΔQTc1) [3]: dose-dependent increase in QT interval prolongation
